Results taken from publication PMC5372361 (Scientific Reports, 2017).
Where two headings read alike, the source gives them in different places.

Columns and labels:
porcine liver CaE = target: T1, porcine liver CaE (Sus scrofa, UniProt Q29550); experiment: In vitro CaE inhibition (4-nitrophenyl acetate hydrolysis); assay type: biochemical; conditions: for inhibition at 20 µM: 20 μM of compound
T1 sequence (Q29550 19-566): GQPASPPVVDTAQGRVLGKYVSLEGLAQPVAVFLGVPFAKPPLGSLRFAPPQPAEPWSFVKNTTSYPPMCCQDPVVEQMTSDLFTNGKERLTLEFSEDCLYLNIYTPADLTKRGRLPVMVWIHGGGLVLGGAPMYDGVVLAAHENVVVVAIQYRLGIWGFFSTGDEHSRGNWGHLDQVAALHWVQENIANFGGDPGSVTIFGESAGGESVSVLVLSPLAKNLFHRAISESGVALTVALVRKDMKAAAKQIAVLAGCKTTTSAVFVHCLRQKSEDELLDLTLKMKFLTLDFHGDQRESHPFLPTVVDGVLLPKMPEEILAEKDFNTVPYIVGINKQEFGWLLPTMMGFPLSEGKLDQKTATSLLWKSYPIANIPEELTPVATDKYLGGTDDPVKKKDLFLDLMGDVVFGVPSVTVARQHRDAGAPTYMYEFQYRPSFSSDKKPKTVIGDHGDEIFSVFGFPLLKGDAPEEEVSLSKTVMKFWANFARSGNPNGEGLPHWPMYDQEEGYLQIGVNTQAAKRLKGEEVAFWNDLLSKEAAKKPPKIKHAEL
Protocol: Acetylcholinesterase (AChE, EC 3.1.1.7, from human erythrocyte), butyrylcholinesterase (BChE, EC 3.1.1.8, from equine serum), carboxylesterase (CaE, EC 3.1.1.1, from porcine liver), acetylthiocholine iodide (ATCh), butylthiocholine iodide (BTCh), 5,5′-dithiobis-(2-nitrobenzoic acid) (DTNB), and 4-nitrophenol acetate (4-NPA), were purchased from Sigma-Aldrich (Germany).
The activity of CaE was determined spectrophotometrically by the release of 4-nitrophenol at 405 nm[76]. The assay solution consisted of 0.1 M K/Na phosphate buffer (pH 8.0, 25 °C) with the addition of 1 mM 4-nitrophenyl acetate and 0.02 unit/mL of CaE. The assays were carried out with a blank containing all components except CaE.
The test compounds were dissolved in DMSO; the incubation mixture contained 2% of the solvent. […] The test compounds were added to the assay solution and pre-incubated at 25 °C with the enzymes for 10 min followed by the addition of the substrate. A parallel control was made for the assay solution with no inhibitor. […] Each experiment was performed in triplicate. The results were expressed as the mean ± SEM. The reaction rates in the presence and absence of inhibitor were compared, and the percentage of residual enzyme activity due to the presence of test compounds was calculated.

tubulin = target: T2, tubulin (Sus scrofa, UniProt P02550+P02554); experiment: Tubulin polymerization to microtubules (absorbance at 355 nm); assay type: biochemical; conditions: read-out: (dA355/dt)max, % of control
T2 construct: purchased Cytoskeleton, Inc., Denver, USA
Protocol: The primary screening for the effect on tubulin polymerization in vitro was performed using a commercial tubulin in the presence of 0.1 mM of the carbazole–aminoadamantane conjugates. In blank probes, tubulin (40 μM) polymerization in the presence of 10% DMSO (as in the case of test probes) leads to absorbance increase after a rather long (80–120 minutes) lag period. […] The results are summarized in Table 3 as the maximum rate of absorbance increase for a tubulin- microtubules suspension normalized to the blank value.
The assembly of tubulin into microtubules was carried out using pure tubulin from HTS- Tubulin polymerization assay kit (Cytoskeleton, Inc., Denver, USA). […] The standard polymerization reaction contained 100 μl of a 4 mg/ml tubulin solution in 80 mM PIPES (pH 6.9), 0.5 mM EGTA, 2 mM MgCl2, and 1 mM GTP. […] The parameter Vmax = (dA355/dt)^max normalized to control probes (%) was used to compare the action of the compounds. Electron microscopic monitoring was carried out on Carl Zeiss Libra 120 Electron Microscope (Carl Zeiss Meditec AG, Jena, Germany) at 120 kV using negative countstaining.

human erythrocyte AChE = target: T3, human erythrocyte AChE (Homo sapiens, UniProt P22303); experiment: biochemical; conditions: for inhibition at 20 µM: read-out: inhibition % at 20 μM, AChE
T3 construct: We used human erythrocyte AChE, equine serum BChE, and porcine liver CaE; purchased Sigma-Aldrich (Germany); host or cells: human erythrocyte
Protocol: (§1) The AChE and BChE activities were measured by the method of Ellman and co-workers as described earlier[75]. The assay solution consisted of 0.1 M K/Na phosphate buffer (pH 7.5, 25 °C) with the addition of 0.33 mM DTNB, 0.02 unit/mL of AChE or BChE, and 1 mM of substrate (ATCh or BTCh, respectively). The assays were carried out with a blank containing all components except ATCh and BTCh in order to take account of a non-enzymatic reaction.
(§2) The test compounds were dissolved in DMSO; the incubation mixture contained 2% of the solvent. […] The test compounds were added to the assay solution and pre-incubated at 25 °C with the enzymes for 10 min followed by the addition of the substrate. A parallel control was made for the assay solution with no inhibitor. Measurements were performed in a FLUOStar OPTIMA multifunctional reader (BMG Labtech, Germany). Each experiment was performed in triplicate. The results were expressed as the mean ± SEM. The reaction rates in the presence and absence of inhibitor were compared, and the percentage of residual enzyme activity due to the presence of test compounds was calculated.

equine serum BChE = target: T4, equine serum BChE (Equus caballus, UniProt P81908); experiment: biochemical; conditions: for inhibition at 20 µM: read-out: inhibition % at 20 μM, BChE
T4 construct: We used human erythrocyte AChE, equine serum BChE, and porcine liver CaE; purchased Sigma-Aldrich (Germany); host or cells: equine serum
Protocol: as §1, §2

[1] = target: T5, ifenprodil binding site of NMDA receptors containing NR2B subunits (Rattus norvegicus, UniProt P35439+Q00960); experiment: Radioligand binding, competition with [3H]ifenprodil; conditions: rat hippocampal membranes
T5 construct: we used a membrane preparation of rat cerebral hippocampus; from tissue; host or cells: rat hippocampal membranes
Protocol: (§3) Two radioactive ligands were used: [^3H]
(§4) The obtained membrane pellet was resuspended in a work buffer (5 mM HEPES/4.5 mM Tris buffer, pH 7.6) in a ratio of 1:5 and stored in liquid nitrogen. The reaction mixture (the final volume of 0.5 ml) contained 200 μl of the working buffer, 50 μl of 50 nM radioligand solution, and 250 μl of the membrane suspension. Nonspecific binding was determined in the presence of 50 μl of 1 mM of unlabeled ligand.
(§5) For binding study, the reaction mixture was incubated at room temperature for 2 hours. After incubation, the samples were filtered through GF/B glass-fiber filters (Whatman), washed with the work buffer, dried, and transferred to scintillation vials to which 5 ml of scintillation fluid was added containing 4 g of diphenyloxazole (PPO), 0.2 g of diphenyloxazoil benzene (POPOP), and 1 liter of toluene.
(§6) The effect of the test compounds on the binding of [^3H]

[2] = target: T6, MK-801 binding (intrachannel) site of NMDA receptor (Rattus norvegicus, UniProt P35439); experiment: Radioligand binding, competition with [3H]MK-801; conditions: rat hippocampal membranes
T6 construct: we used a membrane preparation of rat cerebral hippocampus; from tissue; host or cells: rat hippocampal membranes
Protocol: as §3, §4, §5, §6

[3] = system: SH-SY5Y neuroblastoma cells; experiment: Ionomycin-induced toxicity in SH-SY5Y neuroblastoma cells (MTT test); assay type: cell-based, human; conditions: 3 μM ionomycin, 24 hours
Protocol: The human neuroblastoma cell line SH-SY5Y was used for all experiments. The cells were cultured in a humidified, 5% (v/v) CO2-controlled environment at 37 °C, and grown in MEM/F12 culture medium supplemented with 15% fetal bovine serum (FBS), 100 U/mL penicillin, and […][90].
The cell viability was evaluated as the dehydrogenase activity with the 3-(4,5-dimethylthiazol-2-yl)-2,5-diphenyltetrazolium bromide (MTT) assay. Briefly, the SH-SY5Y cells were incubated with 0.1 and 1 μM of a test compound or an equal volume of the vehicle (<1% of the whole volume of the medium under the layer of cells) and 3 μM ionomycine for 24 h. The absorbance was measured at 570 nm using a Victor microplate reader (Perkin Elmer).

[4] = equine serum BChE, pH 7.5, 25 °C, 10 min pre-incubation, read-out: IC50 ± SEM, BChE

T3 sequence (P22303 32-617 isoform P22303-2 limits assumed): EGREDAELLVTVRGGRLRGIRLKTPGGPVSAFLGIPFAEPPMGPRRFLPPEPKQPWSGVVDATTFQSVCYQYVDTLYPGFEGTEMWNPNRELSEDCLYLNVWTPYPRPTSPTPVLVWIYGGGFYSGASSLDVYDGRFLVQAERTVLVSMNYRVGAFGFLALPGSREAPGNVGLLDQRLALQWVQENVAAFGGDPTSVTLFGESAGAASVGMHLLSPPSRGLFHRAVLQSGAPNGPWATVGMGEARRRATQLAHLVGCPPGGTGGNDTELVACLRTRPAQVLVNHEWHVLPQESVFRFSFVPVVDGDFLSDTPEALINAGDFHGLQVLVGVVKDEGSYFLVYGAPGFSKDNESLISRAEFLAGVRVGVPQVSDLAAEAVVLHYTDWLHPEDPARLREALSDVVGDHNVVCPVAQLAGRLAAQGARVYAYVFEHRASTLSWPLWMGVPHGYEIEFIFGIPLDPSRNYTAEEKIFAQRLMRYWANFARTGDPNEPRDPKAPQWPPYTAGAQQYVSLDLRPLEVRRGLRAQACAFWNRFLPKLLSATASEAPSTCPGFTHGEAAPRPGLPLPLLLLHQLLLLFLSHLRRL
T4 sequence (P81908 whole entry): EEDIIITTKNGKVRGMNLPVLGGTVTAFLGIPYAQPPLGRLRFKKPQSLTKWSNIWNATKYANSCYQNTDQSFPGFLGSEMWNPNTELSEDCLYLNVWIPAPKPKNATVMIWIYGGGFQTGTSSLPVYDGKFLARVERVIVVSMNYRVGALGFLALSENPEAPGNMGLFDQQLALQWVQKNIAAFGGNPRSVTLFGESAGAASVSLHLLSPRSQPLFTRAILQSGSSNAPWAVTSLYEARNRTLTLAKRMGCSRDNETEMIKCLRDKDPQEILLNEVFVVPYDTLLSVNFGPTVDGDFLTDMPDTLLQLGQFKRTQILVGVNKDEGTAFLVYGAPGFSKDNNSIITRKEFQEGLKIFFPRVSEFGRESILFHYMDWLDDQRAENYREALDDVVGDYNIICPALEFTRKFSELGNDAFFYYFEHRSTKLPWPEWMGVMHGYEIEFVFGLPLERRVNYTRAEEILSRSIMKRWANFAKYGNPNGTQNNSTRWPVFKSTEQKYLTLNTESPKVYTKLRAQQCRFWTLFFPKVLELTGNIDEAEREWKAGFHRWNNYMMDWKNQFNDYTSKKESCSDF
T2 sequence (P02550 whole entry): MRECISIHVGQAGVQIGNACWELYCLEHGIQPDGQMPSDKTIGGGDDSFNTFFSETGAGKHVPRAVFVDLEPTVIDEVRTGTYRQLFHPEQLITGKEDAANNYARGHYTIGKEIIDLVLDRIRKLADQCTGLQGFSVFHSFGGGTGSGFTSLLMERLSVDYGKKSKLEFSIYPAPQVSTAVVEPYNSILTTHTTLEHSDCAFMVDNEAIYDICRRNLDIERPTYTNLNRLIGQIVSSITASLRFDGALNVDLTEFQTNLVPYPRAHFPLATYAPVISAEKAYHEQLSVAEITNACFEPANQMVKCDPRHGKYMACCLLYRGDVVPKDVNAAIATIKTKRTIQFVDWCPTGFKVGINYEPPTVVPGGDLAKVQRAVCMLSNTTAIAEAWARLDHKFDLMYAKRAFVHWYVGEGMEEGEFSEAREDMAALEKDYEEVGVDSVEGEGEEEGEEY
T2 sequence (P02554 whole entry): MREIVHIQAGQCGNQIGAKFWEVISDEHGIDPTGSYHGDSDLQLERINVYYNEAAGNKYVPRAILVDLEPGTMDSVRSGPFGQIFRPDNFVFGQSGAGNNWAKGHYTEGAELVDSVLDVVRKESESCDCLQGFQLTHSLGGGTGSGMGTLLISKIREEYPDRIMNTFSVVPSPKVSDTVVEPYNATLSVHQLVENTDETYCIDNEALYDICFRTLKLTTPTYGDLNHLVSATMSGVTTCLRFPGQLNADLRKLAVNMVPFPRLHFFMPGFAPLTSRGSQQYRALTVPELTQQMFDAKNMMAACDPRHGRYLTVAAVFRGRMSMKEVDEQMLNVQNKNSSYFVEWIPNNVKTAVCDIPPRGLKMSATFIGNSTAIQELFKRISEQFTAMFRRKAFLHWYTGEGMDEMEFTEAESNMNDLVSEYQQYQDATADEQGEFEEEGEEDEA
T5 sequence (Q00960 27-1482, other chains not shown): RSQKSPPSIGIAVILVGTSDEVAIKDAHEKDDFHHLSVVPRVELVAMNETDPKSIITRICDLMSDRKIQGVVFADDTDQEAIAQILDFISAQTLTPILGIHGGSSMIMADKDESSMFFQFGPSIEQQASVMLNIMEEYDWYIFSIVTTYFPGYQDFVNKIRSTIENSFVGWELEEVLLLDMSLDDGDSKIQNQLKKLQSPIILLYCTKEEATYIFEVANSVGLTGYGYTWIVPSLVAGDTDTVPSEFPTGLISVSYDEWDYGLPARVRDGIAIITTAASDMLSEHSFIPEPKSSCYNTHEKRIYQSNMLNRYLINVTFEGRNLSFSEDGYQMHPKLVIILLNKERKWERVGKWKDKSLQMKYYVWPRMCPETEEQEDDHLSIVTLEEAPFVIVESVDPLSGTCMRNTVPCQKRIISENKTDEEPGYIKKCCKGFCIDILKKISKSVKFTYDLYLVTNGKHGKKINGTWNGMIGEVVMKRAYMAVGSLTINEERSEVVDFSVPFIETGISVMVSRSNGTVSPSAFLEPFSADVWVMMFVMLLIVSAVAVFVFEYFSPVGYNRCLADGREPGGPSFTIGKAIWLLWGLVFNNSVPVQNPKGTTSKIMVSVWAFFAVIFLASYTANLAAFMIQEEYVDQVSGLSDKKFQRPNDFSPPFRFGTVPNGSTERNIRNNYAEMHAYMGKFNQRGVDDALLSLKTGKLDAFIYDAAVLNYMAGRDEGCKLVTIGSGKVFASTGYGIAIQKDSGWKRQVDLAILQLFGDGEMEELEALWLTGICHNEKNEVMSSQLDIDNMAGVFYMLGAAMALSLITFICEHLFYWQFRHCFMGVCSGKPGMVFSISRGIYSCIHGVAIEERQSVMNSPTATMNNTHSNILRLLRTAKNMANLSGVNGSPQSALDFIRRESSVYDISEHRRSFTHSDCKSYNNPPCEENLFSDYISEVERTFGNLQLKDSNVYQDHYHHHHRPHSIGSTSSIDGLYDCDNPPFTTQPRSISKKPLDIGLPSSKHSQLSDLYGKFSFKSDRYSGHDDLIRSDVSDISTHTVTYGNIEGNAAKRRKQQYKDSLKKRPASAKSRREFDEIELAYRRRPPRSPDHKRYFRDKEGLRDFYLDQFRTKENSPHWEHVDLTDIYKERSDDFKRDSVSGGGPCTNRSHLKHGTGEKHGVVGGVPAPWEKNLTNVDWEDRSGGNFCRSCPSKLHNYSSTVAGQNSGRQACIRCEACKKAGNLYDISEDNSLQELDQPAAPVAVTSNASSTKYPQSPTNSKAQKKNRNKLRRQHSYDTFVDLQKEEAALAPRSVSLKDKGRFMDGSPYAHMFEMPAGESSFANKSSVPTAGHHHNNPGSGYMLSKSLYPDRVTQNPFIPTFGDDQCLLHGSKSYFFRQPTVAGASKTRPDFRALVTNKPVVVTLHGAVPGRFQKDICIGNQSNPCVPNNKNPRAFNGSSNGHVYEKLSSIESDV

Row | SMILES | maximum polymerization rate, % of control at 100 µM (tubulin) | inhibition at 20 µM (porcine liver CaE) | inhibition at 20 µM (human erythrocyte AChE) | inhibition at 20 µM (equine serum BChE) | % of [3H]ifenprodil blockade at 100 μM of compound [1] | % of [3H]МК-801 blockade at 100 μM of compound [2] | IC50 (equine serum BChE; [4]) | also measured
1 | O=[N+]([O-])c1ccc(OP(=O)(O)Oc2ccc([N+](=O)[O-])cc2)cc1 [BNPP, Bis-4-nitrophenyl phosphate] | – | – | – | – | – | – | – | IC50 (porcine liver CaE; porcine liver CaE, pH 8.0, 25 °C, read-out: IC50 ± SEM, CaE): 1.8 ± 0.11 µM
2 | CC(=O)O[C@H]1C(=O)[C@@]2(C)[C@H]([C@H](OC(=O)c3ccccc3)[C@]3(O)C[C@H](OC(=O)[C@H](O)[C@@H](NC(=O)c4ccccc4)c4ccccc4)C(C)=C1C3(C)C)[C@]1(OC(C)=O)CO[C@@H]1C[C@@H]2O [Paclitaxel] | – | – | – | – | – | – | – | remaining activity at 5 µM (tubulin; 5 μM, 100% = vehicle control (10% DMSO)): 487 ± 32%
3 | c1ccc2c(c1)[nH]c1ccccc12 [Carbazole] | 123 ± 12% | 9.4% | 1.8% | 16.1% | – | – | – | IC50 (human erythrocyte AChE): > 20 µM; IC50 (equine serum BChE): > 20 µM
4 | CC12CC3CC(C)(C1)CC(N)(C3)C2.Cl [Memantine, 1-amino-3,5-dimethyladamantane hydrochloride] | 89 ± 7% | 3% | 1.3% | 13.7% | 11.2 ± 1.1% | 100% | > 20 µM | IC50 (human erythrocyte AChE; read-out: IC50 ± SEM, AChE): > 20 µM
5 | C[C@H](CCC(=O)O)C[C@H](C)C[C@H](C)C(=O)/C=C(\O)[C@H](C)C[C@H](C)C/C=C/[C@@H](C)[C@@H](O)[C@@H](C)[C@@H](O)C[C@@H]1CC[C@@](C)([C@H]2CC[C@@](C)([C@@H](C)O)O2)O1 [ionomycin] | – | – | – | – | – | – | – | reduction of neuroblastoma cell survival [3]: 36 ± 4%
6 | NC12CC3CC(CC(C3)C1)C2 [Amantadine] | – | 3.2% | – | – | 44.6 ± 4.6% | 57.2 ± 5.5% | > 20 µM | remaining activity at 100 µM (tubulin; at 100 μM of compound, 100% = vehicle control (10% DMSO)): 98 ± 16%; inhibition at 20 µM (equine serum BChE; 20 μM of compound): 6.9%
